“Also recorded” adds a separate entry of the source.
Assays:
[1] = system: nAChRs on SuSC GABAergic terminals (crude synaptosomes); type: biochemical, mouse
[2] = system: α6β2*-nAChR, crude striatal synaptosomes; type: biochemical, mouse
[3] = system: α6β2* and α3β2* nAChR; conditions: cited from earlier work
[4] = system: α6* nAChRs, crude rat striatal synaptosomes; conditions: cited from earlier work

In the case of α-conotoxin PIA [α-CtxPIA], the “effect on ACh-evoked [^3H]-GABA release (abstract)” value [1] is reported as “did not affect [^3H]-GABA release”, the “inhibition of ACh-stimulated [^3H]-GABA release by 100nM α-CtxPIA” value [1] is reported as “completely unable to inhibit” and the “inhibition of ACh-stimulated [^3H]-GABA release by α-CtxPIA” value [1] is reported as “could not be reliably fit to an inhibition model; also recorded: no significant inhibition”. The “inhibition of ACh-stimulated [^3H]-dopamine release” value [2] was 24.2 ± 3.3%, the “subtypes inhibited by the α-conotoxin” value [3] was “selective inhibitor of α6β2*-nAChR” and the “reversibility of inhibition of DA release” value [4] was “slowly reversible”. For the same substance, the IC50 ([4]; read-out: IC50, inhibition of DA release stimulated by nicotine or ACh) was 1.48 nM.

— article PMC4026281 (Journal of neurochemistry, 2012)
